Reference: article PMC11233931, “Remodeling tumor‐associated macrophage for anti‐cancer effects by rational design of irreversible inhibition of mitogen‐activated protein kinase‐activated protein kinase 2” (MedComm, 2024)

Key:
Assay in all cases: Eurofins kinase selectivity profile against 380 other human recombinant kinases (Table S2)
Type in all cases: biochemical
[1] = molecular target: T1, 380 human recombinant protein kinases (Homo sapiens, UniProt O15075); conditions: DCAMKL1(h), read-out: Inhibition rate
T1 construct: purchased Eurofins (Celle Lévescault)
Procedure, shortened: (§1)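 Selectivity panel of 380 human recombinant protein kinases, screened by Eurofins at a range of concentrations.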

[2] = molecular target: T2, 380 human recombinant protein kinases (Homo sapiens, UniProt O75460); conditions: IRE1(h), read-out: Inhibition rate
T2 construct: purchased Eurofins (Celle Lévescault)
Procedure, shortened: as §1

[3] = molecular target: T3, 380 human recombinant protein kinases (Homo sapiens, UniProt O94806); conditions: PKD3(h), read-out: Inhibition rate
T3 construct: purchased Eurofins (Celle Lévescault)
T3 sequence (O94806 1-890): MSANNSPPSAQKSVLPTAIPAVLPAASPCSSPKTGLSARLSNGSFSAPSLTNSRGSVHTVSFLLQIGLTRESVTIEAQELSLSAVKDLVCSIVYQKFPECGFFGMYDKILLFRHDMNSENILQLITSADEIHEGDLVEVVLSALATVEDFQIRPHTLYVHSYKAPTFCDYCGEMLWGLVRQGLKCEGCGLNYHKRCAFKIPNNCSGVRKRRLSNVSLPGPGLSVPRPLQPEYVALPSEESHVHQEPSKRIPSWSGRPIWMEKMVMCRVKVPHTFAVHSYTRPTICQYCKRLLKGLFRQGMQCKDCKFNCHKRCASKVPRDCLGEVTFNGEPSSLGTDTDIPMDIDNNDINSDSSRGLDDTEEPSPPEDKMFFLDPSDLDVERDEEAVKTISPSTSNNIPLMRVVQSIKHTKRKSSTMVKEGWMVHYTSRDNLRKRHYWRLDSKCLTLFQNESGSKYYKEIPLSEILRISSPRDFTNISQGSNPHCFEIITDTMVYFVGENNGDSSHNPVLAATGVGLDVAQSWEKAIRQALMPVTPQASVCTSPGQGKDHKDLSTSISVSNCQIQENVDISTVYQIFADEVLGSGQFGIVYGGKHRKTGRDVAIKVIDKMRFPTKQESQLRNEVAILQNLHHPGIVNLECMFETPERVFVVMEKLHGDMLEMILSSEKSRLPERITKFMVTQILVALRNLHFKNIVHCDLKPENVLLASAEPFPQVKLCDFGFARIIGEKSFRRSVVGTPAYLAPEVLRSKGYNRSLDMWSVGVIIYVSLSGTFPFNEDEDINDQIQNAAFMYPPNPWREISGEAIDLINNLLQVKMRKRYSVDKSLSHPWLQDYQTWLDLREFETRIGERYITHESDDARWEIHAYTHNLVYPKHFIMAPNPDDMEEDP
Procedure, shortened: as §1

[4] = molecular target: T4, 380 human recombinant protein kinases (Homo sapiens, UniProt P41240); conditions: CSK(h), read-out: Inhibition rate
T4 construct: purchased Eurofins (Celle Lévescault)
Procedure, shortened: as §1

[5] = molecular target: T5, 380 human recombinant protein kinases (Homo sapiens, UniProt P51957); conditions: NEK4(h), read-out: Inhibition rate
T5 construct: purchased Eurofins (Celle Lévescault)
Procedure, shortened: as §1

[6] = molecular target: T6, 380 human recombinant protein kinases (Homo sapiens, UniProt Q8N4C8); conditions: MINK(h), read-out: Inhibition rate
T6 construct: purchased Eurofins (Celle Lévescault)
Procedure, shortened: as §1

[7] = molecular target: T7, 380 human recombinant protein kinases (Homo sapiens, UniProt Q9UPZ9); conditions: ICK(h), read-out: Inhibition rate
T7 construct: purchased Eurofins (Celle Lévescault)
T7 sequence (Q9UPZ9 1-632): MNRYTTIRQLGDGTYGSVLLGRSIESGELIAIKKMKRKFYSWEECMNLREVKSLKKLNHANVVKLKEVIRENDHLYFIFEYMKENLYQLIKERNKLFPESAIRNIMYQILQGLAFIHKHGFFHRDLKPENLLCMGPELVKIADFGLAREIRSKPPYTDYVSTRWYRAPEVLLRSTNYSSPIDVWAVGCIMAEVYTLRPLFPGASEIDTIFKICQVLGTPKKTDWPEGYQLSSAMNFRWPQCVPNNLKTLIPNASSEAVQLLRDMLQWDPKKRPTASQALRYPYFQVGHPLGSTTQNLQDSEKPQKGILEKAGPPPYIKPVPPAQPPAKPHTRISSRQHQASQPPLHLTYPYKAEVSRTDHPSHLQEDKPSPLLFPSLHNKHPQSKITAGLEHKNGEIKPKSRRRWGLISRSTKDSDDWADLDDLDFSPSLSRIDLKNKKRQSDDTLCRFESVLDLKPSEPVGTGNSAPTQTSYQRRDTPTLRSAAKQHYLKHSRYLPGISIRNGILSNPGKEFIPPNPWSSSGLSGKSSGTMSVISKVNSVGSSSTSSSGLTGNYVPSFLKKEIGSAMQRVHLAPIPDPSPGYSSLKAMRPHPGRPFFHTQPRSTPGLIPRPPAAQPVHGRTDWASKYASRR
Procedure, shortened: as §1

T2 sequence (O75460 19-977): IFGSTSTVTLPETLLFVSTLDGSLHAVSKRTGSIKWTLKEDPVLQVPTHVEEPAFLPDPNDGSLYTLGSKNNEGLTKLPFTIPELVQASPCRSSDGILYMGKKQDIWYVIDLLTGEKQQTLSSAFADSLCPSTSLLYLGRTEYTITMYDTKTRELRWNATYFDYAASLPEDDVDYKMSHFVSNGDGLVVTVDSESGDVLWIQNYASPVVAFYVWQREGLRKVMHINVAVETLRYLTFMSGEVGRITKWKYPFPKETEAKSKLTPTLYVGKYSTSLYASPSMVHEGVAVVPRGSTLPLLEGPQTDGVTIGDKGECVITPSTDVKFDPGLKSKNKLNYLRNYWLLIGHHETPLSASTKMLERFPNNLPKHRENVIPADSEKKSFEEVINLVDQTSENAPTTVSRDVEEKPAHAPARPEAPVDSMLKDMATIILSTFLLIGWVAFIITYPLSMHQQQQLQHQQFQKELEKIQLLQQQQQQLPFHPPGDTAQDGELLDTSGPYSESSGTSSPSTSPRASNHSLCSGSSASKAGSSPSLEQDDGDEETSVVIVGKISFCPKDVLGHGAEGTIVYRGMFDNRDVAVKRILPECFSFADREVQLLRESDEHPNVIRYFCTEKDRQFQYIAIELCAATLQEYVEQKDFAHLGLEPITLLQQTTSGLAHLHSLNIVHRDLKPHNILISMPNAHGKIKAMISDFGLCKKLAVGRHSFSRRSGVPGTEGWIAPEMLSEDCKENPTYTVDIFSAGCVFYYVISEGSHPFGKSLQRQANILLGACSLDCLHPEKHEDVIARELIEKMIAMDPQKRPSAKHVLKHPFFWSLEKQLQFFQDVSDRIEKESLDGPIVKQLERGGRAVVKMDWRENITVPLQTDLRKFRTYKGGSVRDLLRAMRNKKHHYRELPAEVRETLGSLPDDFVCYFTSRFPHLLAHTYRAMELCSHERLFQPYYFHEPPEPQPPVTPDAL
T1 sequence (O15075 whole entry): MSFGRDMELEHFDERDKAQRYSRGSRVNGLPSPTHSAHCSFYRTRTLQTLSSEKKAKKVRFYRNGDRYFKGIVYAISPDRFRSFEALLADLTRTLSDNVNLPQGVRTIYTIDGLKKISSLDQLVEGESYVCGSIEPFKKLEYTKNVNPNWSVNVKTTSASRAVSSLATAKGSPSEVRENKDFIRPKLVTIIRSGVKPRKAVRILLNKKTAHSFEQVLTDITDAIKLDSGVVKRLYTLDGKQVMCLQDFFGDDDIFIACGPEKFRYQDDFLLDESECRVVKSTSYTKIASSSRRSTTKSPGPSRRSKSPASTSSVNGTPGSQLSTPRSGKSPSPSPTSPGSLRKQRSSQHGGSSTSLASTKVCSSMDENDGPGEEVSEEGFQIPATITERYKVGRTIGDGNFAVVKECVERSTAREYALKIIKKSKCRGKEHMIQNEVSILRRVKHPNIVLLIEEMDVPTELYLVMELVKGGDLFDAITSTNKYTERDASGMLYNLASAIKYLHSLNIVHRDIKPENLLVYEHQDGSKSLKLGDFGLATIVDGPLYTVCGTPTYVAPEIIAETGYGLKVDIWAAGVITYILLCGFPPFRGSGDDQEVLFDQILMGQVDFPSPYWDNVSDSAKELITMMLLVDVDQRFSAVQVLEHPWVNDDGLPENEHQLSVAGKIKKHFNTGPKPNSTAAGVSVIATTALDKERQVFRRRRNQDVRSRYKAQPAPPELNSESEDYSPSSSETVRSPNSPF
T4 sequence (P41240 whole entry): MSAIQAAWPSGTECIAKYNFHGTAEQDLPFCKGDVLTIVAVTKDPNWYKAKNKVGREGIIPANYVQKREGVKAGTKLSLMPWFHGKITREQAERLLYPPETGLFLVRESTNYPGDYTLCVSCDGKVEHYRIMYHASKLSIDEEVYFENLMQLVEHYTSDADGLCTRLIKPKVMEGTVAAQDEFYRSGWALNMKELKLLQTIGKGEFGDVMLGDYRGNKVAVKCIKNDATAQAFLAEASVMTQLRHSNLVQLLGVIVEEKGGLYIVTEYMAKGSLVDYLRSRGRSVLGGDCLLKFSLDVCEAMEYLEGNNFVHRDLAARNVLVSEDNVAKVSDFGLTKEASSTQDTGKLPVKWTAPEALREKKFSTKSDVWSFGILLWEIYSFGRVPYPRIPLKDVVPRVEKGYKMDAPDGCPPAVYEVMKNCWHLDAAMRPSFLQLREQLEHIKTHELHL
T5 sequence (P51957 whole entry): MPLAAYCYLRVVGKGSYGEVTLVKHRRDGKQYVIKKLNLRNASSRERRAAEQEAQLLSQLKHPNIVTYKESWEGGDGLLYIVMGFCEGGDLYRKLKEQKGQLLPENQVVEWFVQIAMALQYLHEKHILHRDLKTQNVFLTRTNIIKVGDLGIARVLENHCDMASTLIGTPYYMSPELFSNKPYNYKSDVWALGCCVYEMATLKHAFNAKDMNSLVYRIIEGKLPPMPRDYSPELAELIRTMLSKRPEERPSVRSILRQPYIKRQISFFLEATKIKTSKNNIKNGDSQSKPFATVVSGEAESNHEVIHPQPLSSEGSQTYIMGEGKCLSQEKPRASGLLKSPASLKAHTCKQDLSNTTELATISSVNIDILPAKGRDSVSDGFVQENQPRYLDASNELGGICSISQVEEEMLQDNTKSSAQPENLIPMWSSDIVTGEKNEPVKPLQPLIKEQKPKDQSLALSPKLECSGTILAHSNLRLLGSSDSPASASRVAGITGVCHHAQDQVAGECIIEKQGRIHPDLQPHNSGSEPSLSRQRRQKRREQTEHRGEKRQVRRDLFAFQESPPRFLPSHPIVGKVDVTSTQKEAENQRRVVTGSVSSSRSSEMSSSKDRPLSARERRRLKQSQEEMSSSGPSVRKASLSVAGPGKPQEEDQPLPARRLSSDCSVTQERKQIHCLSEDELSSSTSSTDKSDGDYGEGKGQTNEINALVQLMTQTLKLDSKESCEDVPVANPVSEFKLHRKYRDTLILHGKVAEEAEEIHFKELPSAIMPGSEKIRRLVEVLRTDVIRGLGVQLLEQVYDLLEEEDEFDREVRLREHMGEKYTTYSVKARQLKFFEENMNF
T6 sequence (Q8N4C8 whole entry): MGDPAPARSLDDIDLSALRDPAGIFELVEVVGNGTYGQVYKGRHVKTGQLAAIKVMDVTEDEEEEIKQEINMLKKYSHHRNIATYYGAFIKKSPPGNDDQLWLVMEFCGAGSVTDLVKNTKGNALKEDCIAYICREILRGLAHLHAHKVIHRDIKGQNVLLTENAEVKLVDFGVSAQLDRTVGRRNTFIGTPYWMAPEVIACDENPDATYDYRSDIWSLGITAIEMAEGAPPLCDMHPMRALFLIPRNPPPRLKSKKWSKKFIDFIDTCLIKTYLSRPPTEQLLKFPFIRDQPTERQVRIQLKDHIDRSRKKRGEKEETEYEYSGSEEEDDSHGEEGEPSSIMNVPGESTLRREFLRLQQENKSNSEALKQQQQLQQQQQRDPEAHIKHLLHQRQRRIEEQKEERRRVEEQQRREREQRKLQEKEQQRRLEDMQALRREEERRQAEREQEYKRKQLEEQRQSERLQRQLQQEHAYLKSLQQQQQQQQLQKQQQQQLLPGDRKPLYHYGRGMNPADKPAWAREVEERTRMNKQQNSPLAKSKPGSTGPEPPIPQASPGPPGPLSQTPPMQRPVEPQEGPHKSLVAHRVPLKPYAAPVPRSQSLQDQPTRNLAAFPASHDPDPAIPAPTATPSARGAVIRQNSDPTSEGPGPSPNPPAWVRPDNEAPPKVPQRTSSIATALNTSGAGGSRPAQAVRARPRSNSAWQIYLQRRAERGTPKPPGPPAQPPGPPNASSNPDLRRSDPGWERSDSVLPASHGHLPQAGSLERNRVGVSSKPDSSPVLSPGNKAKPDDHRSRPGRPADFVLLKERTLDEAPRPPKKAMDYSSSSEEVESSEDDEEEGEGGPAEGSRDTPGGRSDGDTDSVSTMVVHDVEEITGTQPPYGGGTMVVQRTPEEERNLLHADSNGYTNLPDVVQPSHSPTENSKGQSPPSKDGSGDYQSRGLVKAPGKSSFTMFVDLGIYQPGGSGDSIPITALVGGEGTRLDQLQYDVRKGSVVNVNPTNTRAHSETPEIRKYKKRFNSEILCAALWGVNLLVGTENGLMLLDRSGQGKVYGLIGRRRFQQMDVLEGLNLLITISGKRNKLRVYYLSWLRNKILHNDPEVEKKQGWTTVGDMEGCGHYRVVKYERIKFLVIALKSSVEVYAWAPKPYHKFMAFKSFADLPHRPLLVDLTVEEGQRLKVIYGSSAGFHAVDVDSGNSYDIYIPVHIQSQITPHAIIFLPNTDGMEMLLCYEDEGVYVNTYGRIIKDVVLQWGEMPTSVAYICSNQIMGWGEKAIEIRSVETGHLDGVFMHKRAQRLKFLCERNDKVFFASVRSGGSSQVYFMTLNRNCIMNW

## C=CC(=O)Nc1cc(-c2cc(-c3cc4c([nH]3)CCNC4=O)ccn2)ccc1OC(F)(F)F [compound 11]
[1]; 10 nM
  inhibition at 0.01 µM: 3%
[1]; 100 nM
  inhibition at 0.1 µM: -1%
[1]; 1000 nM
  inhibition at 1 µM: -1%
[2]; 10 nM
  inhibition at 0.01 µM: 0%
[2]; 100 nM
  inhibition at 0.1 µM: -2%
[2]; 1000 nM
  inhibition at 1 µM: 0%
[3]; 10 nM
  inhibition at 0.01 µM: 4%
[3]; 100 nM
  inhibition at 0.1 µM: 15%
[3]; 1000 nM
  inhibition at 1 µM: 55%
[4]; 10 nM
  inhibition at 0.01 µM: -2%
[4]; 100 nM
  inhibition at 0.1 µM: -1%
[4]; 1000 nM
  inhibition at 1 µM: -13%
[5]; 10 nM
  inhibition at 0.01 µM: -2%
[5]; 100 nM
  inhibition at 0.1 µM: 5%
[5]; 1000 nM
  inhibition at 1 µM: 34%
[6]; 10 nM
  inhibition at 0.01 µM: -10%
[6]; 100 nM
  inhibition at 0.1 µM: 3%
[6]; 1000 nM
  inhibition at 1 µM: 31%
[7]; 10 nM
  inhibition at 0.01 µM: 3%
[7]; 100 nM
  inhibition at 0.1 µM: 18%
[7]; 1000 nM
  inhibition at 1 µM: 8%
